Experimental data: patent publication US20040176316A1, “Compounds for the normalization of the sleep/wake cycle” (priority 2002, published 2004)
“Also recorded” adds a separate entry of the source. Like-named read-outs stand apart in the source and are kept apart here.

How the values were obtained:
[1] = cited from earlier work
[2] = test system: cocaine user; experiment: Level of activity as a function of time of day in a cocaine user without and with CDP-choline treatment (FIGS. 2A and 2B); assay type: in vivo
Excerpt: FIGS. 2A and 2B are graphs of level of activity as a function of time of day without (A) and with (B) citicoline treatment. A, B, and C refer to use of alcohol, caffeine, and cocaine, respectively. The numbers indicate a craving for cocaine, based on a 10 point scale. Gray dots indicate ingestion of citicoline.
CDP-choline and related compounds are also useful in the treatment of substance abuse disorders, such as alcohol, cocaine, opiate, opioid, nicotine, or tobacco usage or dependence (U.S. Pat. Nos. 5,958,896 and 6,103,703 and U.S. Provisional Application No. 60/424,972, filed Nov. 8, 2002). Since substance abuse disorders may cause a disruption in the quality of sleep or the sleep/wake cycle, the methods of the invention may be used to normalize the sleep/wake cycle or treat sleep disorders in patients with a substance abuse disorder. In addition, a substance abuse disorder and an abnormal sleep/wake cycle or sleep disorder may be treated simultaneously with the methods described herein. FIGS. 2A and 2B show data on the level of activity of a cocaine user for five days without treatment (FIG. 2A) and for 5 days after treatment with CDP-choline (FIG. 2B, monitoring began 4 days after treatment). […] In addition, the subject's use of cocaine (denoted by C) was eliminated with treatment, and the use of alcohol (denoted by A) was reduced.

[3] = cited from earlier work; remark: listed apart in the source
[4] = cited from earlier work; remark: listed apart in the source
[5] = test system: human subjects; experiment: Effects of citicoline on sleep quality and mood, rated by subjects on a 10 point scale (FIG. 1); assay type: in vivo
Excerpt: FIG. 1 is a graph of the effects of citicoline on sleep quality and mood. […] The quality of sleep is improved, and the sleep/wake cycle is normalized after 2-4 weeks of citicoline treatment. This normalization of the sleep/wake cycle may further promote increased wakefulness or reduce fatigue or tiredness during the day. The administration of citicoline will also likely stabilize the homeostatic processes involved in sleep disorders such as insomnia, sleep apneas (central or obstructive), problem sleepiness, restless leg syndrome, periodic limb movements, and narcolepsy. In addition, citicoline may increase cognitive functioning (Alvarez et al. Methods Find Exp Clin Pharmacol 21:633-44, 1999; Fioravanti et al. Cochrane Database Syst. Rev. 4: CD000269, 2000) and may be used to increase cognitive performance in individuals in a sleep-deprived state, e.g., pilots, physicians, students, or others who may experience long periods without sleep.

[6] = after 2-4 weeks of citicoline treatment
[7] = human subjects, measured by the subjects on a 10 point scale, compared to placebo (FIG. 1)

## O=c1ccn([C@@H]2O[C@H](CO)[C@@H](O)[C@H]2O)c(=O)[nH]1 [uridine]
[1]; humans
  tolerability: well tolerated
[1]; mammals
  tolerability: well tolerated

## CC(=O)OC[C@H]1O[C@@H](n2ccc(=O)[nH]c2=O)[C@H](OC(C)=O)[C@@H]1OC(C)=O [triacetyl uridine]
[1]; in vivo
  tolerability: well tolerated

## C[N+](C)(C)CCOP(=O)(O)OP(=O)([O-])OC[C@H]1O[C@@H](n2ccc(N)nc2=O)[C@H](O)[C@@H]1O [CDP-choline, cytidine 5′-diphosphocholine]
[1]; mammals
  tolerability: well tolerated
[2]; 5 days of monitoring that began 4 days after treatment, vs five days without treatment
  sleep/wake cycle: normalized to a diurnal pattern
[2]; after treatment
  cravings for cocaine (10 point scale): reduced in intensity
[2]; after treatment vs without treatment
  level of activity during the day: more active during the day
[2]; with treatment
  use of alcohol: reduced
  use of cocaine: eliminated
[3]; ingestion of large amounts in preclinical studies
  toxicity symptoms: common cholinergic symptoms (salivation, lacrimation, urination, defecation, and vomiting)
[3]; reported cases
  overdoses: no reported cases of overdoses
[4]; administered either orally or intravenously
  metabolic conversion after administration: rapidly metabolized to cytidine and choline; also recorded: rapidly converted into the two major circulating metabolites, choline and cytidine
[4]; orally administered
  CDP-choline and/or its metabolites absorbed: more than 99%
  excreted in feces: less than 1%
[4]; share of dose
  excretion via lung: 12.9%
  excretion via urine: 2.4%
  rest of the dose metabolized and retained in tissues: 83.9%
[5]; [6]
  quality of sleep: improved
  sleep/wake cycle: normalized
[5]; [7]
  mood: increases
  quality of sleep: increases

## CN(CC(=O)O)C(=N)N [Creatine, creatine]
[1]; humans
  tolerability: well tolerated at relatively high doses
